In patent US20080020041A1, “Enteric Coated Compositions that Release Active Ingredient(s) in Gastric Fluid and Intestinal Fluid” (priority 2004, published 2008):
Where a name gives a salt, the structure may show the parent alone. Read-outs that look alike come from different tables or passages of the source.

How the values were obtained:
[1] = Hydrochlorothiazide bio-study: urinary excretion, urine output and side effects after IR or GRD; format: in vivo, human; conditions: same dose, drug released in gastric fluid (GRD)
Description: Two formulations for hydrochlorthiazide (an immediate release formulation (IR) and a gastric retention device (GRD) containing sustained release formulations (SR)) were administered in the bio-study (bioavailability study). A commercial tablet containing 50 mg of HCTZ was used as an IR control, and spray-coated beads equivalent to 50 mg of HCTZ were formulated for slow drug release (SR) and included in the GRF. Bioavailability and pharmacodynamics of HCTZ from a GRD were compared to those from an IR.
Monitoring concentrations of hydrochlorthiazide in the urine of healthy adult volunteers allowed comparison of the relative bioavailability of hydrochlorthiazide from the GRD formulation and from a conventional tablet. […] An IR was given once and the GRD was repeated twice to test the reproducibility of the new dosage form. A 50-mg dose was chosen for the study because it was in the range of the recommended dose from the PDR (Physician's Desk References) and it produced concentrations high enough to make HPLC analysis efficient. Six subjects participated in the study, 4 healthy males and 2 healthy females. They were not allowed any food or drink containing caffeine, nor alcohol or other medications. Smokers and vegetarians were not included. […] The volume of urine collected was measured in order to calculate total amount of drug recovered.

[2] = Protocol: All data fittings were performed on data from immediate-release formulations using WinNonlin software, version 3.2 (Pharsight Corporation, Mountain View, Calif.).
[3] = prolonged release wax matrix formulation; cited from earlier work
[4] = cited from earlier work
[5] = fitted from available plasma data (PDR), used in simulations
Description: These parameters are volume of distribution divided by fraction of dose absorbed (V/F), absorption rate constant (ka), and elimination rate constant (kel).

[6] = commercial mixed pellets, cited from earlier work
[7] = 60 mg immediate-release riboflavin, fed subjects; cited from earlier work
[8] = disintegrating tablets from pellets coated with cellulose acetate phthalate; cited from earlier work
[9] = fitted to literature data of immediate-release formulation

NS(=O)(=O)c1cc2c(cc1Cl)NCNS2(=O)=O [Hydrochlorothiazide]
Adverse reactions reported [1]: No adverse reactions were reported

CNC(=C[N+](=O)[O-])NCCSCc1ccc(CN(C)C)o1 [Ranitidine hydrochloride]
absorption rate constant ([2]; human, in vivo): 0.641 | kel ([2]; human, in vivo): 0.239 h⁻¹

Cc1cc2nc3c(=O)[nH]c(=O)nc-3n(C[C@H](O)[C@H](O)[C@H](O)COP(=O)(O)O)c2cc1C [Riboflavin-5-phosphate]
absorption rate constant [2, 9]: 3.67 | kel [2, 9]: 0.32 h⁻¹

CC1(C)S[C@@H]2[C@H](NC(=O)[C@H](N)c3ccc(O)cc3)C(=O)N2[C@H]1C(=O)O [amoxicillin]
Amoxicillin released in 6 hours [3]: 19%

CC(=O)Oc1ccc(C(c2ccc(OC(C)=O)cc2)c2ccccn2)cc1 [bisacodyl]
Liberation of bisacodyl in 0.1 M HCl ([4]; coating of mixture of Eudagrit L and Eudgrit NE): approximately 4 % w/w | Liberation of bisacodyl in phosphate buffer within 45 min ([4]; pH 6.8, polymer 1): 100% | Liberation of bisacodyl in phosphate buffer within 45 min ([4]; pH 6.8, polymer 2): 40% | Liberation of bisacodyl in phosphate buffer ([4]; pH 7.2, polymer 2): 100% | Bisacodyl liberated in acidic media after tableting ([4]; pellets coated with 25% w/w of one of the new polymers): 4-5 % w/w

C[C@H](N)Cc1ccccc1 [d-Amphetamine]
ka [5]: 0.744 h⁻¹ | Observed Cmax ([6]; Fasted, 30 mg): 40.2 ng/mL | Observed Cmax ([6]; Fed, 20 mg): 25.3 ng/mL

Cc1cc2nc3c(=O)[nH]c(=O)nc-3n(C[C@H](O)[C@H](O)[C@H](O)CO)c2cc1C [riboflavin]
Bioavailability [7]: 36.4%

Cc1cc(NS(=O)(=O)c2ccc(N)cc2)no1 [sulfametoxazole]
Drug liberated within 2 hours in artificial gastric fluid [8]: more than 10%
